The test system of one experiment is CI-MPR. Put plainly: CI-MPR fluorescence in MNs of treated G93A mice. Format: in vivo. Conditions: 10 mg/kg, day 100. An excerpt:
We next asked whether increasing VPS35/26 protein levels is sufficient to increase retromer functionality. CI-MPR is unstable in VPS26-knockout cells, and we observed a substantial reduction of CI-MPR MFI levels in MNs of vehicle-treated G93A mice compared with WT litters (Fig. 6c). […] Sortilin encodes a receptor belonging to the Vps10 family involved in Frontotemporal Dementia (FTD)[45], which shares functional homologies with MPRs and is another retromer cargo[46].
Fluorescence intensity levels of VPS35, VPS26, CI-MPR, Sortilin, CTSD and Ubiquitin were calculated using NHI-Image J software (US National Institutes of Health) according to the following protocol: stacks of confocal images were used to generate the maximal projections using the Leica Application Suite X (2.0.0.14332) software and then postprocessed by NHI-Image J to crop single NeuN^+ MNs from the ventral horn of the spinal cord. We next performed background (calculated on adjacent slices only receiving secondary antibodies) subtraction for each channel, before applying the NHI-Image J mean filter (with radius 2.0 pixels) to calculate mean NeuN fluorescence levels in individual MNs. Using this approach, we established a region of interest (ROI) to gate single MNs. On this ROI, we measured mean fluoresce levels (MFI) of target proteins.

Another experiment concerns VPS26b. Kind of experiment: Western blot for VPS26b in treated Neuro2a cells. It is filed as cell-based. Conditions: 10 µM, 48 h, WB. Here is the method: (§1) Compound 2a increases VPS26b and VPS29 in Neuro2a […]
(§2) a,WBs forVPS26b, VPS29 and β-Tubulin in vehicle- and compound 2a-treated Neuro2a cells(10 μM, 48h, 3x10^5 cells/well).Quantitative analyses of blots (means ± SD) are shown inhistograms (control:n=4 independent wells, 2a: n=5 independent wells examined in one experiment, p<0.0001 for all the comparisons. Two-tailed Student’s test was used to determine the statisticalsignificanceof data, ***p<0.0001
(§3) (1 picture or pasted object on this page, not shown here)
(A western blot detects proteins with antibodies after separation by electrophoresis.)

The target in another experiment is T1, VPS29 (Mus musculus, UniProt Q9QZ88).
T1 construct: endogenous in cells; host or cells: Neuro2a (ATCC CCL-131)
Kind of experiment: Western blot for VPS29 in treated Neuro2a cells. Conditions: 10 µM, 48 h, WB. It is filed as cell-based. Here is the method:
as §1, §2, §3

The subject of the next experiment is Cathepsin D (CTSD). Put plainly: Cathepsin D (CTSD) levels in treated G93A mice. Format: in vivo. The following applies: 10 mg/kg, day 100. An excerpt: We next investigated Cathepsin D (CTSD) expression and distribution in G93A mice, since its trafficking involves the retromer complex. In humans, CTSD maturation starts with a pre-pro-CTSD then converted to pro-CTSD (52 kDa) in the endoplasmic reticulum. Recycling of pro-CTSD and its downstream migration to acidic compartments involves CI-MPR and the retromer pathway. Pro-CTSD is further processed to an intermediate form in late endosomes (48 kDa), and finally converted to mature CTSD (34 kDa) in lysosomes. VPS35 inactivation[48] or VPS26 knockdown[21] affect CTSD maturation. We scored CTSD levels in lumbar SC extracts from vehicle-treated WT and vehicle- or 2a-treated G93A mice. […] We next analyzed CTSD levels and CTSD^+ puncta in MNs by confocal microscopy, observing their significant reduction in MNs of vehicle-treated G93A mice that was restored by treatment with compound 2a (Fig. 6f).
Fluorescence intensity levels of VPS35, VPS26, CI-MPR, Sortilin, CTSD and Ubiquitin were calculated using NHI-Image J software (US National Institutes of Health) according to the following protocol: stacks of confocal images were used to generate the maximal projections using the Leica Application Suite X (2.0.0.14332) software and then postprocessed by NHI-Image J to crop single NeuN^+ MNs from the ventral horn of the spinal cord. […] On this ROI, we measured mean fluoresce levels (MFI) of target proteins.

In experiment [1] the test system is SOD1^G93A-transfected Neuro2a cells. Put plainly: Lyso-tracker analysis of lysosomes in SOD1G93A-transfected Neuro2a cells. Format: cell-based. The following applies: 24 h starvation, 10µM. Here is the method: Lysosomal alterations are early events in ALS[7],[56]. We speculated that an impairment of the retromer should alter protease trafficking via CI-MPR, and therefore disrupt lysosomal homeostasis. […] We transfected Neuro2a cells with plasmids encoding the Sh56-RNAi to downregulate VPS35. After 24 h of starvation, we analyzed the lysosomes using Lyso-tracker[58]. We observed enlarged and abnormally distributed lysosomes in cells with VPS35 interference by Sh56 (Supplementary Fig. 12a–c). […] We asked whether the overexpression of SOD1^G93A would also result in similar lysosomal alterations by transfecting Neuro2a cells with plasmids encoding SOD1^G93A, with or without compound 2a.
VPS35 knockdown impairs lysosomal stability
Panels a and b, Neuro2a cells (4x10^4cells/well) transfected with the scramble plasmid (0.5 µg/well, a)or with the VPS35 RNAi plasmids (Sh56, 0.5 µg/well, b) along with plasmid encoding the GFP (0.1 µg/well) and labelled with Lyso-tracker (75 nM). Quantifications of Lyso Tracker-covered areas (%± SD) in individual GFP+ cells were done on merged confocal images and data are shown in c (scramble: n=52 cells, Sh56: n=39 cells, data are collected from 3 independent experiments, p<0.0001). Protein lysates from Neuro2a cells (3x10^5 cells/well) receiving scramble or Sh56 plasmids (2 µg/well for 48h) were labelled for Ubiquitin and β-Actin (d). […]

The target in another experiment is VPS35 (Mus musculus, UniProt Q9EQH3+Q9QZ88). Kind of experiment: Western blot for VPS35 in spinal cord extracts of treated C57BL6J mice. Format: in vivo. Set-up: from tissue; host or cells: mouse (lumbar) spinal cord, motor neurons. Conditions: 10 mg/Kg intraperitoneally daily, 1 week. Here is the method: Compounds 2a, 4a, and standard R55/1 (10 mg/Kg) were intraperitoneally injected in C57BL6J mice daily. After 1 week, mice were sacrificed, saline perfused to avoid CNS contamination by compounds in blood circulation, and SC protein extracts were assayed by WB. […] Therefore, phenyl-1,3-bis-guanylhydrazone 2a was selected as an early lead.

As for `NC(N)=N/N=C/c1cccc(/C=N/N=C(N)N)c1` [compound 2a, phenyl-1,3-bis-guanylhydrazone], the “CI-MPR MFI levels in MNs” value with CI-MPR is given as “significantly increased”. For the same compound, the VPS26b protein levels entry with VPS26b was “significantly increased”. Also, at VPS29, the VPS29 protein levels result is given as “significantly increased”. In the experiment on Cathepsin D (CTSD), the “CTSD levels and CTSD+ puncta in MNs (confocal)” value is on record as “restored”; the “levels of mature CTSD (WB, lumbar SC extracts)” value was “significantly increased”. Also, the “enlarged lysosomes (Lyso-tracker)” value in experiment [1] is “significantly reverted this phenotype”. Further, the “VPS35 levels in SC extracts” value at VPS35 is recorded as “significantly increased”.

(Values after article PMC7395176, “Retromer stabilization results in neuroprotection in a model of Amyotrophic Lateral Sclerosis” (Nature Communications, 2020).)
